Reference: US7026355B2, “Use of rhein or diacerhein compounds for the treatment or prevention of vascular diseases” (Transition Therapeutics Inc., priority 2001, dated 2006)
Numbered stars: 1 amine (or outer) side, 2 acyl side, 3 side chain; on linkers, the order of the positions; unused ones are H or OH. Bridge positions count the residues as written; N and C are the ends. Square brackets hold non-standard residues; d marks the D form. Peptide text beside a SMILES is read from it. I, II: the chains in the order shown. Actinocin(9to1) = Cc1c2oc3c(C)ccc(C(=O)[*:1])c3nc-2c(C(=O)[*:2])c(N)c1=O; NMeV = CN[C@H](C(=O)O)C(C)C; Sar = CNCC(=O)O

Experiments:
[1] = tested on: prostaglandin E2 synthesis; conditions: cited from earlier work
[2] = tested on: aortic smooth muscle cells; assay: prolonged incubation (1-3 days), cells counted with a hemocytometer; format: cell-based, Rat
Experimental: (§1) The CellTiter 96® AQueous One Solution Cell Proliferation Assay (Promega) was used as a colorimetric method for determining the number of viable cells in proliferation. Cell proliferation assays were performed by adding a small amount of the CellTiter 96® AQueous One Solution Reagent directly to culture wells, incubating for 1–4 hours and then recording absorbance at 490 nm with a 96 well plate reader. The quantity of formazan product as measured by the amount of 490 nm absorbance is known in the art to be directly proportional to the number of living cells in the culture. For the assay, cells were incubated with rhein or diacerhein for 24 h. In addition, cells from selected concentrations are also treated with rhein or diacerhein and are incubated for 1–3 days. The cells are harvested and counted using a hemocytometer. Trypan blue staining was carried out to determine % of viable cells vs dead cells.
Intimal smooth muscle cell (SMC) proliferation plays a key role in atherosclerosis and restenosis following vascular injury. Therefore, rhein or diacerhein is predicted to effectively treat these disease states.

iron regulatory protein = conditions: inflamed human monocytes; cited from earlier work
[3] = 5 to 50 mg/kg for periods as long as 50 weeks; cited from earlier work
[4] = tested on: Rat aortic smooth muscle cells (A-10 cells); assay: in vitro assay of smooth muscle cell migration after scrape injury; format: cell-based; conditions: incubation 20 h
Experimental: The following in vitro assay was conducted to illustrate the effect of diacerhein on smooth muscle cell migration. Increased smooth muscle cell migration following injury is one of the predominant causes of obstruction of the vascular system following stenting and other vascular procedures.
Rat aortic smooth muscle cells (A-10 cells) were seeded at 2.5×10^5 cells/well in 6 well plates using Dulbecco's Modified Eagle Medium™ (Gibco BRL Cat. # 11885-084), 10% FBS and 1% Antibiotic Antimycotic (Gibco BRL Cat. # 15240). Confluency of cells after about 8 h was between 80˜90%. Cells were injured with the single edge cell scraper (one injury/well) then washed twice with PBS and treated with diacerhein at concentrations ranging from 50 μM to 100 μM. Images were taken using a X5 modulation objective (Zeiss, Germany) attached to a Zeiss Axiovert 100 inverted microscope equipped with Hoffman Modulation contrast optical filters (Greenvale, N.Y.).
The images were taken at zero time and following the incubation of smooth muscle cells with diacerhein for a period of 20 h.

A-10 cells [5] = assay: Trypan blue staining, % of viable cells vs dead cells; format: cell-based; conditions: no treatment 96.2%
Experimental: as §1

A-10 cells [6] = assay: CellTiter 96 AQueous One Solution Cell Proliferation Assay; format: cell-based, Rat; conditions: for Measure of Proliferative Activity (Absorbance at 490 nm): 24 h, no treatment 0.775; for proliferative activity as compared to untreated cells: concentration higher than 10^−7 M
Experimental: A-10 cells were seeded at 1.0×10^3 cells/well in 96 well plates using Dulbecco's Modified Eagle Medium™ (Gibco BRL Cat. # 11885-084), 10% FBS and 1% Antibiotic Antimycotic (Gibco BRL Cat. # 15240) and allowed to grow overnight. Prior to treatment, cells were washed and the culture medium was replaced with culture medium containing either rhein or diacerhein at varying concentrations ranging from 10^−4 to 10^−8M.
as §1

[7] = clinical trials of actinomycin-D eluting stents; cited from earlier work

Structure (SMILES)	prostaglandin E2 synthesis [1]	anti-proliferative activity on prolonged incubation (FIG. 2) [2]	iron regulatory protein activation (iron regulatory protein)	severity of osteoarthritis [3]	migration of smooth muscle cells ([4]; 50 μM)	migration of smooth muscle cells ([4]; 100 μM)	Percentage of viable cells (A-10 cells [5]; Treatment with 10^−4 M) [%]	Percentage of viable cells (A-10 cells [5]; Treatment with 10^−5 M) [%]	Percentage of viable cells (A-10 cells [5]; Treatment with 10^−6 M) [%]	Measure of Proliferative Activity (Absorbance at 490 nm) (A-10 cells [6]; Treatment with 2.5 × 10^−5 M)	Measure of Proliferative Activity (Absorbance at 490 nm) (A-10 cells [6]; Treatment with 5.0 × 10^−5 M)	Measure of Proliferative Activity (Absorbance at 490 nm) (A-10 cells [6]; Treatment with 7.5 × 10^−5 M)	Measure of Proliferative Activity (Absorbance at 490 nm) (A-10 cells [6]; Treatment with 10^−4 M)	Measure of Proliferative Activity (Absorbance at 490 nm) (A-10 cells [6]; Treatment with 10^−5 M)	Measure of Proliferative Activity (Absorbance at 490 nm) (A-10 cells [6]; Treatment with 10^−6 M)	Measure of Proliferative Activity (Absorbance at 490 nm) (A-10 cells [6]; Treatment with 10^−7 M)	proliferative activity as compared to untreated cells (A-10 cells [6])	prevention of restenosis [7]
CC(=O)Oc1cccc2c1C(=O)c1c(OC(C)=O)cc(C(=O)O)cc1C2=O [Diacerhein, 4,5-bis(acetyloxy)-9,10-dihydro-4,5dihydroxy-9,10-dioxo-2-anthracenecarboxylic acid]	stimulates prostaglandin E2 synthesis	anti-proliferative activity	inhibits iron regulatory protein activation	reduced the severity of osteoarthritis	significantly inhibited	significantly inhibited	97.0	97.5	96.2	0.561	0.419	0.408	0.380	0.646	0.710	0.738	decrease in proliferative activity	–
O=C(O)c1cc(O)c2c(c1)C(=O)c1cccc(O)c1C2=O [Rhein, 9,10-dihydro-4,5-dihydroxy-9,10-dioxo-2-anthracenecarboxylic acid]	–	anti-proliferative activity	–	–	–	–	97.1	96.0	97.5	0.577	0.518	0.460	0.430	0.675	0.738	0.891	decrease in proliferative activity	–
Cc1c2oc3c(C)ccc(C(=O)N[C@@H]4C(=O)N[C@H](C(C)C)C(=O)N5CCC[C@H]5C(=O)N(C)CC(=O)N(C)[C@@H](C(C)C)C(=O)O[C@@H]4C)c3nc-2c(C(=O)N[C@@H]2C(=O)N[C@H](C(C)C)C(=O)N3CCC[C@H]3C(=O)N(C)CC(=O)N(C)[C@@H](C(C)C)C(=O)O[C@@H]2C)c(N)c1=O [actinomycin D] (I: T[dV]P[Sar][NMeV] / II: T[dV]P[Sar][NMeV]; ester I:1-I:C, II:1-II:C; linker I:N-II:N via Actinocin(9to1))	–	–	–	–	–	–	–	–	–	–	–	–	–	–	–	–	–	ineffectiveness
